{"source": "ChEMBL document CHEMBL1201862", "about": "“PubChem BioAssay data set” (2004)", "experiment_in_all_cases": "NCI anticancer screen, dose series, 48 h", "key": {"DU-145": {"test_system": "DU-145"}, "KM12": {"test_system": "KM12"}, "MDA-MB-231": {"test_system": "MDA-MB-231"}, "OVCAR-5": {"test_system": "OVCAR-5"}, "SK-OV-3": {"test_system": "SK-OV-3"}, "SR": {"test_system": "SR"}, "CCRF-CEM": {"test_system": "CCRF-CEM"}, "SNB-19": {"test_system": "SNB-19"}, "MCF7": {"test_system": "MCF7"}, "SK-MEL-5": {"test_system": "SK-MEL-5"}, "SF-539": {"test_system": "SF-539"}, "NCI/ADR-RES": {"test_system": "NCI/ADR-RES"}, "M14": {"test_system": "M14"}, "CAKI-1": {"test_system": "CAKI-1"}, "MDA-MB-435": {"test_system": "MDA-MB-435"}, "BT-549": {"test_system": "BT-549"}, "OVCAR-8": {"test_system": "OVCAR-8"}, "HCT-15": {"test_system": "HCT-15"}, "HCC 2998": {"test_system": "HCC 2998"}, "SW-620": {"test_system": "SW-620"}, "SK-MEL-28": {"test_system": "SK-MEL-28"}, "UO-31": {"test_system": "UO-31"}, "UACC-257": {"test_system": "UACC-257"}, "HL-60": {"test_system": "HL-60"}, "K562": {"test_system": "K562"}, "TK-10": {"test_system": "TK-10"}, "U-251": {"test_system": "U-251"}, "RPMI-8226": {"test_system": "RPMI-8226"}, "Malme-3M": {"test_system": "Malme-3M"}, "A549": {"test_system": "A549"}, "HOP-62": {"test_system": "HOP-62"}, "NCI-H23": {"test_system": "NCI-H23"}, "PC-3": {"test_system": "PC-3"}, "786-0": {"test_system": "786-0"}, "RXF 393": {"test_system": "RXF 393"}, "IGROV-1": {"test_system": "IGROV-1"}, "EKVX": {"test_system": "EKVX"}, "UACC-62": {"test_system": "UACC-62"}, "A498": {"test_system": "A498"}, "SN12C": {"test_system": "SN12C"}, "Hs-578T": {"test_system": "Hs-578T"}, "MOLT-4": {"test_system": "MOLT-4"}, "NCI-H460": {"test_system": "NCI-H460"}, "LOX IMVI": {"test_system": "LOX IMVI"}, "SF-268": {"test_system": "SF-268"}, "T47D": {"test_system": "T47D"}, "COLO 205": {"test_system": "COLO 205"}, "SF-295": {"test_system": "SF-295"}, "ACHN": {"test_system": "ACHN"}, "MDA-N": {"test_system": "MDA-N"}, "NCI-H522": {"test_system": "NCI-H522"}, "HT-29": {"test_system": "HT-29"}, "OVCAR-3": {"test_system": "OVCAR-3"}, "HCT-116": {"test_system": "HCT-116"}, "OVCAR-4": {"test_system": "OVCAR-4"}, "SK-MEL-2": {"test_system": "SK-MEL-2"}}, "note": "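Cells were grown in 96-well plates and exposed to each compound for 48 hours at five concentrations; endpoints were interpolated linearly between bracketing concentrations, or set to the highest concentration if not reached. Here, GI50 denotes the concentration required for 50% inhibition of growth.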 Active and inactive are the calls of the source. Cut-off read from the data, not from the text of the source: active = GI50 up to about 1.1 µM and inactive = higher."}
{"smiles": "O=C(O)/C=c1/c2ccccc2n2nc3ccccc3c12", "values": [{"measurement": "GI50", "setting": "DU-145", "result": "41.6 µM (inactive)"}, {"measurement": "GI50", "setting": "KM12", "result": "20.4 µM (inactive)"}, {"measurement": "GI50", "setting": "MDA-MB-231", "result": "39.1 µM (inactive)"}, {"measurement": "GI50", "setting": "OVCAR-5", "result": "57.9 µM (inactive)"}, {"measurement": "GI50", "setting": "SK-OV-3", "result": "22.8 µM (inactive)"}, {"measurement": "GI50", "setting": "SR", "result": "16.6 µM (inactive)"}, {"measurement": "GI50", "setting": "CCRF-CEM", "result": "33.2 µM (inactive)"}, {"measurement": "GI50", "setting": "SNB-19", "result": "31.8 µM (inactive)"}, {"measurement": "GI50", "setting": "MCF7", "result": "35.2 µM (inactive)"}, {"measurement": "GI50", "setting": "SK-MEL-5", "result": "14.2 µM (inactive)"}, {"measurement": "GI50", "setting": "SF-539", "result": "19.8 µM (inactive)"}, {"measurement": "GI50", "setting": "NCI/ADR-RES", "result": "29.5 µM (inactive)"}, {"measurement": "GI50", "setting": "M14", "result": "31.2 µM (inactive)"}, {"measurement": "GI50", "setting": "CAKI-1", "result": "37.3 µM (inactive)"}, {"measurement": "GI50", "setting": "MDA-MB-435", "result": "31.6 µM (inactive)"}, {"measurement": "GI50", "setting": "BT-549", "result": "37.4 µM (inactive)"}, {"measurement": "GI50", "setting": "OVCAR-8", "result": "21.5 µM (inactive)"}, {"measurement": "GI50", "setting": "HCT-15", "result": 26.8, "unit": "µM"}, {"measurement": "GI50", "setting": "HCC 2998", "result": "24.1 µM (inactive)"}, {"measurement": "GI50", "setting": "SW-620", "result": "35.6 µM (inactive)"}, {"measurement": "GI50", "setting": "SK-MEL-28", "result": "26 µM (inactive)"}, {"measurement": "GI50", "setting": "UO-31", "result": "37.6 µM (inactive)"}, {"measurement": "GI50", "setting": "UACC-257", "result": "20.9 µM (inactive)"}, {"measurement": "GI50", "setting": "HL-60", "result": "34.1 µM (inactive)"}, {"measurement": "GI50", "setting": "K562", "result": "36.6 µM (inactive)"}, {"measurement": "GI50", "setting": "TK-10", "result": "30.3 µM (inactive)"}, {"measurement": "GI50", "setting": "U-251", "result": "33.6 µM (inactive)"}, {"measurement": "GI50", "setting": "RPMI-8226", "result": "25.8 µM (inactive)"}, {"measurement": "GI50", "setting": "Malme-3M", "result": "25.2 µM (inactive)"}, {"measurement": "GI50", "setting": "A549", "result": "38.2 µM (inactive)"}, {"measurement": "GI50", "setting": "HOP-62", "result": "31.6 µM (inactive)"}, {"measurement": "GI50", "setting": "NCI-H23", "result": "27.7 µM (inactive)"}, {"measurement": "GI50", "setting": "PC-3", "result": "> 100 µM (inactive)"}, {"measurement": "GI50", "setting": "786-0", "result": "38.6 µM (inactive)"}, {"measurement": "GI50", "setting": "RXF 393", "result": "49.1 µM (inactive)"}, {"measurement": "GI50", "setting": "IGROV-1", "result": "31.4 µM (inactive)"}, {"measurement": "GI50", "setting": "EKVX", "result": "37.1 µM (inactive)"}, {"measurement": "GI50", "setting": "UACC-62", "result": "17.5 µM (inactive)"}, {"measurement": "GI50", "setting": "A498", "result": "22 µM (inactive)"}, {"measurement": "GI50", "setting": "SN12C", "result": "26.7 µM (inactive)"}, {"measurement": "GI50", "setting": "Hs-578T", "result": "23.6 µM (inactive)"}, {"measurement": "GI50", "setting": "MOLT-4", "result": "23 µM (inactive)"}, {"measurement": "GI50", "setting": "NCI-H460", "result": "30.1 µM (inactive)"}, {"measurement": "GI50", "setting": "LOX IMVI", "result": "21.9 µM (inactive)"}, {"measurement": "GI50", "setting": "SF-268", "result": "38.4 µM (inactive)"}, {"measurement": "GI50", "setting": "T47D", "result": "55.5 µM (inactive)"}, {"measurement": "GI50", "setting": "COLO 205", "result": "17.2 µM (inactive)"}, {"measurement": "GI50", "setting": "SF-295", "result": "30.8 µM (inactive)"}, {"measurement": "GI50", "setting": "ACHN", "result": "23.8 µM (inactive)"}, {"measurement": "GI50", "setting": "MDA-N", "result": "26 µM (inactive)"}, {"measurement": "GI50", "setting": "NCI-H522", "result": "20.7 µM (inactive)"}, {"measurement": "GI50", "setting": "HT-29", "result": "39.3 µM (inactive)"}, {"measurement": "GI50", "setting": "OVCAR-3", "result": "33.5 µM (inactive)"}, {"measurement": "GI50", "setting": "HCT-116", "result": "24.8 µM (inactive)"}, {"measurement": "GI50", "setting": "OVCAR-4", "result": "22.8 µM (inactive)"}, {"measurement": "GI50", "setting": "SK-MEL-2", "result": "39.7 µM (inactive)"}]}
